Assay results from a melting point compilation (Tetko et al.; mined from patent text by program, amines drawn as free bases though some values may be those of a salt).

SMILES | melting point [°C]
COc1cccc(OC)c1-c1nc2nccnc2[nH]1 | 248 to 249
CON(C)C(=O)Nc1ccc(Oc2ccc3ccccc3c2)c(C(F)(F)F)c1 | 129 to 130
COc1ccc(NC(=O)Oc2ccc3c(c2)N(Cc2ccccc2)CCC3)cc1 | 170
COC(=O)c1cc(-c2c(-c3ccccc3)nn3ccccc23)cn(C)c1=O | 268 to 270
O=Cc1cc2c(s1)CCc1cc(=O)n(-c3ccc(Cl)cc3)nc1-2 | 242 to 244
CC1CCC(C(=O)Nc2ccc(-c3ncc(-c4ccc(NC(=O)C5CCCCC5C)cc4)[nH]3)cc2)CC1 (stereo unspecified) | 218 to 220
N#CC(NC(=O)c1cccc(Cl)c1)n1ccnn1 (stereo unspecified) | 157 to 159
CC(C)NCCCC[C@@H](N)C(=O)O | 224
COc1ccc(S(=O)(=O)N(CCO)c2ccc(Cl)cc2C(O)c2ccccc2Cl)cc1OC (stereo unspecified) | 86.2
O=C(O)CCCc1ccc(N2CCOCC2)cc1 | 167 to 168
Nc1nccc(Oc2ccc3c(C(=O)Nc4cccc(C(F)(F)F)c4)cccc3c2)n1 | 218
CN(Cc1ccccc1)C(=O)Cn1c(=O)n(C)c2nc(-c3ccccc3)ncc21 | 160 to 161
CCCCOc1cc(C=CC(=O)O)n(Cc2ccc(Cl)cc2Cl)n1 | 176 to 179
CCN(Cc1cccnc1)C(=S)NC | 122 to 123
Sc1nc2cc(Cl)c(Cl)cc2s1 | 234 to 236
CN(CCCNC(=O)c1cc(Cl)cc2nc3ccccc3nc12)CCCNC(=O)c1cc(Cl)cc2nc3ccccc3nc12 | 169 to 170
Nc1ccccc1NC(=O)c1ccc(NC(=O)Cc2ccccc2)cc1 | 232 to 237
Cc1nnc(-c2ccc3occ(-c4ccccc4C)c3c2)o1 | 83 to 84
N#CCc1ccc(CN2CCN(c3ccc(F)cc3)CC2)cc1 | 111 to 113
O=C(OCc1ccccc1C(=O)O)c1ccccc1 | 118 to 124
CCCCCCCCCCCCCCCCCC(=O)OC1CC(C)(C)N(OCC(C)(C)O)C(C)(C)C1 | 51 to 56
CC1Oc2cc(F)c(N)cc2NC1=O (stereo unspecified) | 208 to 211
CS(=O)(=O)c1ccc(Oc2ccc(OCC#N)cc2)cc1 | 114 to 116
CC(C)(C)OC(=O)CN1CCC(=O)N(CC(=O)OC(C)(C)C)CCC1=O | 180
O=C(CN1c2ccccc2Cn2c1nc(-c1ccncn1)cc2=O)c1ccccc1 | 263 to 265
c1ccc(CNc2nnc(-c3ccc(CN4CCCCCC4)s3)s2)cc1 | 165 to 166

SMILES | melting point [°C]
CCOC(=O)c1cc2c(s1)-n1c(C)nnc1CN=C2c1ccccc1Cl | 148 to 150
Cn1c(SC(C(N)=O)c2ccccc2)nc2ccccc21 (stereo unspecified) | 185 to 187
FC(F)(F)c1cccc(Nc2nc3ccccc3o2)c1 | 193 to 194
CC(O)(c1nc2ccc(S(=O)(=O)c3ccccc3)cc2c(=O)[nH]1)C(F)(F)F (stereo unspecified) | 202 to 204
CC(=O)NC(C)Cc1ccc(CCC(=O)O)cc1 (stereo unspecified) | 93 to 96
CC1(C)CC(=O)c2c(O)cc(C=Cc3ccccc3)cc2O1 | 116
COc1cc(-c2ccc3cnc(Nc4ccc(C5CCN(CC(N)=O)CC5)cc4)nn23)c(OC)nn1 | 249 to 251
CC(c1oc2ccccc2c(=O)c1-c1ccc(F)cc1)n1cnc2c(N)ncnc21 (stereo unspecified) | 210 to 212
CCc1nn2ccccc2c1N(CCCF)C(C)=O | 76.6 to 79.6
COCOc1cccc(F)c1C#N | 53 to 55
COc1cc(OCc2cccnc2)ccc1/C=C/c1cc(/C=C/c2cccc3[nH]ccc23)n[nH]1 | 109 to 114
CC(=O)OC(=CC(=O)O)CC(=O)Nc1ccccc1 | 125 to 126
O=c1[nH]c2ccc(C3=NOC(CN4CCC(Cc5ccc(F)cc5)C(O)C4)C3)cc2o1 (stereo unspecified) | 224 to 233
CC1(C)OC(=S)Nc2ccc(-c3cccc(Cl)c3)cc21 | 183 to 184
C[Si](C)(c1ccccc1)c1ccccc1CO | 53 to 54
OCCc1nccn1CCCCc1ccc(OCc2coc(/C=C/c3ccc(Cl)cc3)n2)cc1 | 127 to 128
COCCOc1ccc(CCNC(=O)C(F)(F)F)cc1S(=O)(=O)N=CN(C)C | 134 to 136
COc1cc2c(cc1OC)C(=O)C(=Cc1cc(Cl)cc(Cl)c1)C2 | 227
Fc1ccc(Cl)c2ncccc12 | 74 to 76
CC(=O)N1C(C)(C)CC(Oc2nc(OC3CC(C)(C)N(O)C(C)(C)C3)nc(N3C(C)(C)CCCC3(C)C)n2)CC1(C)C | 175 to 176
NC(=O)c1cc([N+](=O)[O-])c(N2CC2)c([N+](=O)[O-])c1 | 228 to 231
Cn1ccc2ccc(CO)cc21 | 47 to 49
O=C1c2cc3nnn(CCC4=CCCCC4)c(=O)c3cc2OC2CCCN12 (stereo unspecified) | 124
COc1ccc(-c2ccc3c(C#N)c(OC)ccc3c2)cc1 | 182 to 185
COCC(C)Oc1cc(Oc2ccc(S(C)(=O)=O)nc2)cc2cc(C3=NCC(CCO)S3)[nH]c12 (stereo unspecified) | 138 to 139
